Experimental data published in publication PMC11327196, “A phase 1 study to assess the absolute bioavailability, mass balance, pharmacokinetics, metabolism, and excretion of [^14C]-mobocertinib, an oral inhibitor of EGFR exon 20 insertion mutations, in healthy participants” (Investigational New Drugs, 2024).

Columns and labels:
[1] = tested on: platinum-pretreated EGFRex20ins mutation positive locally advanced or metastatic NSCLC; design: method as in PMID 34647988; conditions: 114 patients, mobocertinib 160 mg orally qd; cited from earlier work
[2] = Period 1 absolute bioavailability study: plasma PK after single oral 160 mg mobocertinib capsules; format: in vivo, human
Procedure: This was a two-period, open-label, single-dose phase 1 study (NCT03811834) conducted at one clinical site (Celerion, Lincoln, Nebraska, USA) in healthy male participants. The primary objective of Period 1 was to determine the absolute bioavailability of mobocertinib following a single oral dose of 160 mg mobocertinib as capsules and a single intravenous (IV) microdose of 50 µg (~ 2 µCi) [^14C]-mobocertinib. The primary objectives of Period 2 were to (1) assess the cumulative excretion of total radioactivity in urine and feces (mass balance); (2) assess the metabolite profile of mobocertinib in plasma, urine, and feces; and (3) characterize the PK of mobocertinib, AP32960, and AP32914 in plasma, whole blood, and urine, and total radioactivity concentration equivalents in plasma and whole blood following a single oral dose of 160 mg (~ 100 µCi) [^14C]-mobocertinib as an oral solution. A sample size of 6 healthy males was selected without statistical considerations and deemed adequate to meet the study objectives. Furthermore, the sample size was limited based on clinical considerations for human ADME studies and to limit exposure to radioactivity.
On Day 1 of Period 1, following an overnight fast of at least 10 h, participants received a single 160 mg dose of non-radiolabeled mobocertinib as capsules. At 3.75 h post oral dosing (i.e., 15 min before the median oral tmax of ~ 4 h), participants received a nominal dose of 50 µg (~ 2 µCi) [^14C]-mobocertinib as a 15-minute IV infusion. However, due to nonspecific binding of [^14C]-mobocertinib to the dosing syringe and tubing, actual doses administered ranged from 36.8 to 38.7 µg (1.47 to 1.55 µCi). Participants were required to stay in the clinic from Day − 1 through at least the 96-hour blood draw (Day 5) or until a discharge criterion was met (i.e., ≥ 80% of the total administered radioactive dose was recovered in urine and fecal samples or excretion of radioactivity in urine and feces combined had declined to ≤ 1% of the total administered dose per day for ≥ 2 consecutive intervals), up to a maximum of 7 days postdose (Day 8). Blood samples for the measurement of plasma mobocertinib, AP32960, and AP32914 concentrations were collected predose and at 0.5, 1, 2, 3, 4, 5, 6, 8, 12, 24, 36, 48, 72, and 96 h after oral administration. Additional blood samples to determine [^14C]-total radioactivity, [^14C]-mobocertinib, [^14C]-AP32960, and [^14C]-AP32914 in plasma were collected at 3.75 h after oral dosing (i.e., predose for [^14C] assessments), at the end of the IV infusion, and at 10, 20, and 30 min, and 1, 2, 4, 8, 20, 32, 44, 68, and 92 h after the end of infusion. […] Urine and feces were collected before oral dosing (− 48–0 h); urine was collected over 0–3.75 h, 3.75–12 h and 12–24 h after oral dosing; feces were collected from 0 to 3.75 h and 3.75–24 h after oral dosing; both urine and feces were then collected over 24-hour intervals until a discharge criterion was met, or up to Day 8 (168 h postdose).
(§1) Plasma, whole blood, and urine samples were assayed for mobocertinib, AP32960, and AP32914 concentrations using liquid chromatography-tandem mass spectrometry (Q2 Solutions, Ithaca, New York, USA). The analytical range for each analyte was 0.250 to 500 ng/mL in whole blood and plasma, and 1.00 to 1000 ng/mL in urine. […] Urine and fecal samples were assayed for total radioactivity following the IV dose of [^14C]-mobocertinib in Period 1, and whole blood, plasma, urine, and fecal samples were assayed for total radioactivity following the oral dose of [^14C]-mobocertinib in Period 2 using liquid scintillation counting (LSC; Celerion, Lincoln, Nebraska, USA; LLOQs: Period 1 urine: 0.115–0.118 ng eq/g, feces: 0.720–0.759 ng eq/g; Period 2 whole blood: 87.3–112 ng eq/g, plasma: 116–132 ng eq/mL, urine: 37.8–46.8 ng eq/g, feces: 110–336 ng eq/g across participants). […]

[3] = Period 1: excretion in urine and feces after IV [14C]-mobocertinib; format: in vivo, human; conditions: Period 1, IV infusion 50 µg (~2 µCi) [14C]-mobocertinib
Procedure: On Day 1 of Period 1, following an overnight fast of at least 10 h, participants received a single 160 mg dose of non-radiolabeled mobocertinib as capsules. At 3.75 h post oral dosing (i.e., 15 min before the median oral tmax of ~ 4 h), participants received a nominal dose of 50 µg (~ 2 µCi) [^14C]-mobocertinib as a 15-minute IV infusion. However, due to nonspecific binding of [^14C]-mobocertinib to the dosing syringe and tubing, actual doses administered ranged from 36.8 to 38.7 µg (1.47 to 1.55 µCi). Participants were required to stay in the clinic from Day − 1 through at least the 96-hour blood draw (Day 5) or until a discharge criterion was met (i.e., ≥ 80% of the total administered radioactive dose was recovered in urine and fecal samples or excretion of radioactivity in urine and feces combined had declined to ≤ 1% of the total administered dose per day for ≥ 2 consecutive intervals), up to a maximum of 7 days postdose (Day 8). Blood samples for the measurement of plasma mobocertinib, AP32960, and AP32914 concentrations were collected predose and at 0.5, 1, 2, 3, 4, 5, 6, 8, 12, 24, 36, 48, 72, and 96 h after oral administration. Additional blood samples to determine [^14C]-total radioactivity, [^14C]-mobocertinib, [^14C]-AP32960, and [^14C]-AP32914 in plasma were collected at 3.75 h after oral dosing (i.e., predose for [^14C] assessments), at the end of the IV infusion, and at 10, 20, and 30 min, and 1, 2, 4, 8, 20, 32, 44, 68, and 92 h after the end of infusion. […]
as §1, with “USA).” for “USA). The analytical range for each analyte was 0.250 to 500 ng/mL in whole blood and plasma, and 1.00 to 1000 ng/mL in urine.”, “participants). Urine and fecal samples collected in Period 1 that had total radioactivity concentration equivalents below the LLOQ of the Celerion LSC assay were sent to Pharmaron for measurement by AMS (LLOQ: urine: 0.0000253–0.00111 ng eq/g; feces: 0.000404–0.0278 ng eq/g across participants).” for “participants).”

[4] = Period 1, single oral 160 mg mobocertinib capsules, geometric mean (geometric CV%)

For C=CC(=O)Nc1cc(Nc2ncc(C(=O)OC(C)C)c(-c3cn(C)c4ccccc34)n2)c(OC)cc1N(C)CCN(C)C [Mobocertinib], the “median duration of response” value [1] is listed as 17.5 months, the median overall survival [1] is listed as 24.0 months and the median progression-free survival [1] is listed as 7.3 months. The “objective response rate per independent-review committee” value [1] was 28%, the CL/F [2, 4] was 152 (64.9) L/h and the Cmax [2, 4] was 56.7 (52.2) ng/mL. The tmax ([2]; Period 1, single oral 160 mg mobocertinib capsules, median (range)) was 5.0 (4.0–6.0) h, the bioavailability ([2]; male, human, Period 1, oral 160 mg capsules AUC∞ vs dose-normalized IV microdose AUC∞, 90% CI 22.4–60.2%, read-out: geometric mean absolute oral bioavailability) was 36.7% and the AUC(0-inf) ([2]; male, human, Period 1, single oral 160 mg mobocertinib capsules, geometric mean (geometric CV%)) was 1.05 µg·h/mL. The Vd/F ([2]; male, human, Period 1, single oral 160 mg mobocertinib capsules, geometric mean (geometric CV%), read-out: Vz/F) was 5030 L and the half-life ([2]; male, human, Period 1, single oral 160 mg mobocertinib capsules, geometric mean (geometric CV%), read-out: t1/2z (converted)) was 22.9 h.

With [^14C]-mobocertinib the “administered radioactive dose excreted in urine as analyte” value [3] was 1.5%, the “dose recovered as total radioactivity in feces overall” value [3] was 69.9% and the “dose recovered as total radioactivity in urine overall” value [3] was 4.7%. For the same compound, the “radioactive dose excreted in feces as analyte” value [3] was 2.5%.
